Test results taken from patent publication US20170080049A1, “MEDICINE AGAINST GROWTH FAILURE INDUCED BY ADMINISTRATION OF STEROID” (DAIICHI SANKYO COMPANY, LIMITED, priority 2014, published 2017).

Tests used:
Type in all cases: in vivo
[1] = test system: rat growth failure induced by dexamethasone; assay: Action comparing study between CNP derivative (A) and human growth hormone on rat growth failure induced by dexamethasone (Example 6); settings: 2 mL/kg s.c. once a day 28 days, n=4 or 5
Method: Osmotic pumps (MINI-OSMOTIC PUMP Model 2004, available from DURECT CORPORATION, flow rate: 0.25 μL/hr, for 28 days) were charged with a 0.67 mg/mL solution of dexamethasone (dexamethasone injection “KS”, available from Kyoritsuseiyaku Corporation), and one osmotic pump was embedded in the hypoderm of the back of each 4-week-old male Crlj:WI (Wistar) rat (5 animals/group, Group 2 to Group 4, total of 15 animals). For Group 3, a 1 mg/mL solution of CNP derivative (A) (medium: 0.03 mol/L acetate buffer (pH 4.0)/1% benzyl alcohol/10% sucrose), and for Group 4, a 1 mg/mL solution of human-type growth hormone preparation (somatropin BS subcutaneous injection 10 mg “SANDOZ”) diluted with a phosphate buffer was administered to the hypoderm of the back of five rats, respectively, in a volume of 2 mL/kg once a day for 28 days. No substance was administered to the normal control group (5 animals, Group 1). On the final day, after measuring the body weight, the body length and the tail length, the blood was collected from the abdominal aorta and the animal was caused to die under isoflurane anesthesia, the left femur was extracted and the bone length was measured, and then a histopathological specimen of the epiphyseal region was prepared.

[2] = test system: male Crl: CD (SD) rat; assay: Preparation of dexamethasone-induced growth failure model rat (Example 1); settings: continuous s.c. dexamethasone 0.5 or 1 mg/mL, 28 days
Method: Osmotic pumps (MINI-OSMOTIC PUMP Model 2004, available from DURECT CORPORATION, flow rate: 0.25 μL/hr, for 28 days) were charged with dexamethasone (dexamethasone injection “KS”, available from Kyoritsuseiyaku Corporation) having a concentration of 0.5 mg/mL (Group 2) or 1 mg/mL (Group 3), and one osmotic pump was embedded in the hypoderm of the back of each 7-week-old male Crl: CD (SD) rat (5 animals/group, a total of 10 animals). Additionally, in a control group (Group 1, 5 animals), one osmotic pump (the same as above) charged with saline was embedded in the hypoderm of the back of each animal. Then the animals were fed for 28 days, and their bodyweight was measured twice or three times a week. On the final day, after blood collection under isoflurane anesthesia followed by immediate euthanasia, the right femur was extracted, and the length was measured. Plasma was separated from the collected blood, and cholesterol concentration was determined by using cholesterol E-Test Wako (available from Wako Pure Chemical Industries, Ltd.), and the plasma corticosterone concentration was determined by using a Corticosterone, ELISA Kit, AssayMax (96 well) (EC3001-1, available from ASSAYPRO LLC.).

[3] = test system: steroid-induced growth failure, male Crlj:WI (Wistar) rat; assay: Simultaneous combined administration test of various steroids and CNP derivative (A) in rats (Example 5)
Method: 0.3 mg/mL solution of dexamethasone (dexamethasone injection “KS”, available from Kyoritsuseiyaku Corporation diluted with saline), prednisolone succinate suspended in 0.1% polysorbate-containing brine (available from Wako Pure Chemical Industries, Ltd., concentration of 5 mg/mL as prednisolone), or betamethasone dipropionate suspended in 0.1% polysorbate-containing brine (available from Wako Pure Chemical Industries, Ltd., concentration of 0.3 mg/mL as betamethasone) was administered to the hypoderm of the back of a 4-week-old male Crlj:WI (Wistar) rat (ten animals for each set of substances) in a volume of 1 mL/kg once a day for 28 days. No substance was administered to the control group (5 animals, Group 1). At the same time, for five of ten animals in each set (Group 2, Group 4, Group 6) a medium (0.03 mol/L acetate buffer (pH 4.0)/1% benzyl alcohol/10% sucrose) and for the remaining five animals (Group 3, Group 5, Group 7) the medium and a 1 mg/mL solution of CNP derivative (A) were administered in combination in the hypoderm of the back in a volume of 1 mL/kg once a day for 28 days. After measuring the body weight, the body length and the tail length under isoflurane anesthesia on the day after the final day of administration, blood was collected from the abdominal aorta and the animal was caused to die, the right femur was extracted and the femur length was measured.

[4] = test system: dexamethasone-induced growth failure, male Crlj:WI (Wistar) rat; settings: dexamethasone 1 mg/mL pump alone or combined with CNP derivative (A) 20 mg/mL pump, continuous s.c. 28 days, mean ± SD, n=6
Method: Osmotic pumps (MINI-OSMOTIC PUMP Model 2004, available from DURECT CORPORATION, flow rate: 0.25 μL/hr, for 28 days) were charged with a 1 mg/mL solution of dexamethasone (dexamethasone injection “KS”, available from Kyoritsuseiyaku Corporation, Group 2 and Group 3) or saline in a control group (Group 1), and one osmotic pump was embedded in the hypoderm of the back of each 7-week-old male Crlj:WI (Wistar) rat. At the same time, one osmotic pump (the same as described above) charged with a 20 mg/mL solution of CNP derivative (A) in Group 3, or charged with Medium 1 (0.03 mol/L acetate buffer (pH 4.0)/1% benzyl alcohol/10% sucrose) in Group 1 and Group 2 was embedded in the hypoderm of the back simultaneously with the pump containing dexamethasone or saline. Then the animals were fed for 28 days, and the body weight, the body length (length from the top of the nose to the anus) and the tail length were measured on the final day, and after collecting the blood from the abdominal aorta under isoflurane anesthesia, the right femur and major organs (spleen, thymus, liver, heart and lung) were collected. Regarding the femur, the bone length and width were measured by using a caliper, and the organ weights were measured. Concentrations of cholesterol and IGF-1 in plasma prepared from the blood, were determined by using cholesterol E-Test Wako (available from Wako Pure Chemical Industries, Ltd.) and Quantikine® ELISA Mouse/Rat IGF-I Immunoassay (MG100, available from R&D Systems). [Result]

[5] = dexamethasone 0.67 mg/mL pump alone or with CNP derivative (A) or human-type growth hormone 1 mg/mL
[6] = dexamethasone 0.3 mg/mL, 1 mL/kg s.c. once a day 28 days, + medium or + CNP derivative (A) 1 mg/kg, n=5

For C[C@@H]1C[C@H]2[C@@H]3CCC4=CC(=O)C=C[C@]4(C)[C@@]3(F)[C@@H](O)C[C@]2(C)[C@@]1(O)C(=O)CO [Dexamethasone, dexamethasone], the “Body weight at dissection” value ([1]; dexamethasone 0.67 mg/mL pump 28 days alone or with CNP derivative (A) or human-type growth hormone 1 mg/mL, 4-week-old male Wistar rat, mean ± SD) was 245 ± 12 g, the “Body length at dissection” value [1, 5] was 199 ± 4 mm and the “Body length, variation from pre-administration value (Δ value)” value [1, 5] was “(46.8 ± 4.7) mm”. The “Body weight, variation from pre-administration value (Δ value)” value [1, 5] was “(139 ± 13) g”, the “Left femur length at dissection” value [1, 5] was 31.3 ± 0.2 mm and the “Tail length at dissection” value [1, 5] was 197 ± 5 mm. For the same compound, the “Tail length, variation from pre-administration value (Δ value)” value [1, 5] was “(65.0 ± 4.9) mm”, the “body weight (in words)” value ([2]; SD rat (FIG. 1)) was “decreased dose-dependently” and the “femur length (in words)” value ([2]; SD rat (FIG. 2)) was “shortened dose-dependently”. The “Body length at dissection” value [3, 6] was 177 ± 4 mm, the “Body length, variation from preadministration value (Δ value)” value [3, 6] was “(27 ± 5) mm” and the “Body weight, variation from preadministration value (Δ value)” value [3, 6] was “(69 ± 5) g”. For the same compound, the “Right femur length at dissection” value [3, 6] was 28.3 ± 0.4 mm, the “Tail length at dissection” value [3, 6] was 174 ± 4 mm and the “Tail length, variation from preadministration value (Δ value)” value [3, 6] was “(47 ± 7) mm”. The “Body weight at dissection” value ([3]; dexamethasone 0.3 mg/mL, 1 mL/kg s.c. once a day 28 days, + medium or + CNP derivative (A) 1 mg/mL, 1 mL/kg s.c. once a day, 4-week-old male Wistar rat, mean ± SD, n=5) was 176 ± 5 g, the “growth failure in rats by repeated administration of the steroid for 28 days (in words)” value ([3]; rat, in vivo, sc) was “induce growth failure” and the “Body length at final day” value ([4]; 7-week-old male Wistar rat) was 219 ± 5 mm. For the same compound, the “Tail length at final day” value ([4]; 7-week-old male Wistar rat) was 195 ± 6 mm, the “Right femur Length” value ([4]; male Wistar rat) was 35.6 ± 0.6 mm and the “Right femur Wide (epiphyseal region, maximum width)” value ([4]; male Wistar rat) was 7.7 ± 0.4 ^NS mm.
